Our source for the MIC values is ChEMBL document CHEMBL1136459, “New antibacterial tetrahydro-4(2H)-thiopyran and thiomorpholine S-oxide and S,S-dioxide phenyloxazolidinones” (Bioorg Med Chem Lett, 2003).

Converted amounts (≈) assume the structure as drawn.

The subject of assay [1] is Enterococcus faecium. Description: In vitro antibacterial activity against vancomycin-resistant Enterococcus faecium UC12712 (VRE).
For assay [2], the system named is Streptococcus pneumoniae. The assay can be described thus: In vitro antibacterial activity against Streptococcus pneumoniae strains ATCC 6305 and 31573 (SPN); range is 1-2.
Assay [3] has as its system Haemophilus influenzae. The assay can be described thus: In vitro antibacterial activity against Haemophilia influenzae strains 30063 and ATCC 31517 (HI); range is 4-16. The class given is functional.
The subject of assay [4] is Staphylococcus aureus. The assay can be described thus: In vitro antibacterial activity against linezolid-resistant Staphylococcus aureus ATCC 29213 (LRSA). The class given is functional.
For assay [5], the system named is Staphylococcus aureus. Description: In vitro antibacterial activity against Staphylococcus aureus strains UC12673, UC9213, ATCC 29213, and UC9271 (SA). The class given is functional.
Assay [6] concerns Moraxella catarrhalis. Description: In vitro antibacterial activity against Moraxella catarrhalis strains 30607 and 30603 (MC); range is 8-16. The class given is functional.
Assay [7] has as its system Staphylococcus epidermidis. Description: In vitro antibacterial activity against Staphylococcus epidermidis strains UC12084, 30031, and CDC-CNS90 (SE); range is 0.13-2. The class given is functional.

On to `NC(=O)NC[C@H]1CN(c2ccc(C3CCS(=O)(=O)CC3)c(F)c2)C(=O)O1`, for which the MIC in assay [1] is 4 µg/mL (≈ 10.4 µM); in assay [2], 1 µg/mL (≈ 2.59 µM); in assay [3] it was greater than 4 µg/mL; in assay [4], greater than 64 µg/mL; in assay [5] it was 16 µg/mL (≈ 41.5 µM); in assay [6], greater than 8 µg/mL. This molecule also yielded an MIC in assay [7] of 0.13 µg/mL (≈ 0.337 µM).
